The subject of this test is Pseudomonas aeruginosa. It is filed as cell-based.

A value given as a limit tells only on which side of the number the result lay.

butyl acid phosphate [BAP]: the “MBEC (removal of 48-hr biofilm)” value is at most 47 ppm.
